Here are results for 1 compound from patent publication US20130136809A1, “7-HYRDROXYFRULLANOLIDE ITS ANALOGS FOR PREVENTION CONTROL AND TREATMENT OF METABOLIC DISORDERS” (LAILA NUTRACEUTICALS, priority 2009, published 2013).

What all share (format): cell-based, mouse
In one assay the test system is ADRP. In words: Immunoblot of ADRP expression in 3T3-L1 adipocytes. The note with it: 1 ug/ml; normalized with actin. The method, then:
(§1) Experimental protocol: Mouse pre-adipocyte 3T3-L1 cells are maintained in Dulbecco's Modified Eagles Medium (DMEM) supplemented with 2 mM glutamine, 4.5 g/L glucose and 10% fetal bovine serum. Equal number of cells was plated in each well of 24-well culture plates. Cells were pre-treated separately with 1 μg/mL 7-hydroxyfrullanolide for 2 h and followed by addition of differentiation medium containing 500 nM insulin, 1.0 μM dexamethasone, and 0.5 mM isobutylmethylxanthine (IBMX) for 48 h. Thereafter, cells were further incubated with post differentiation medium (DMEM containing 100 nM insulin) in presence or absence of 7-HF. […] Protein content was measured in Bradford method by using Coomassie blue dye and cell lysates were stored in aliquots at −80° C. until further use. The modulation of adipocyte differentiation markers such as Peroxisome proliferator-activated receptor gamma (PPARγ), CD36, adipocyte fatty acid binding protein (aP2); and intracellular lipid droplet surface associated protein, perilipin expression were evaluated by immunoblot assay.
(§2) Inhibition of protein expression of biomarker molecules adipocytes in presence or absence of 7-hydroxyfrullanolide (7-HF) was evaluated in immunoblot assay. […] Band intensities were calculated densitometrically and normalized with expression of actin in respective samples.
(In general: Immunoblotting shows a protein as a band on a membrane.)

In the next assay the test system is adiponectin. Briefly: Western immunoblot of adiponectin in 3T3-L1 adipocytes. As to conditions: 1 μg/ml; 3T3-L1 mature adipocytes. The method, then:
as §1
Inhibition of protein expression of biomarker molecules adipocytes in presence or absence of 7-hydroxyfrullanolide (7-HF) was evaluated in immunoblot assay. […] Band intensities were calculated densitometrically and normalized with expression of actin in respective samples. […]

Another assay relates to aP2. In words: Immunoblot of aP2 expression in 3T3-L1 adipocytes. The note with it: 1 ug/ml; normalized with actin. Here is the method: as §1, §2
Assay [1] relates to 3T3-L1 pre-adipocyte cells. Briefly: Pro-lipolytic activity in differentiated adipocytes (free glycerol release). As to conditions: 5 μg/mL; increase in glycerol release. The method, then:
The lipolytic activity was assessed in mature adipocytes as per the procedure of Chemicon International, USA, by measuring free glycerol secreted into the culture medium. One hundred thousand 3T3-L1 […] pre-adipocyte cells in Dulbecco's Modified Eagles Medium (DMEM) containing 10% Fetal Bovine Serum (FBS) were taken into each well of a 24-well plate and incubated for 48 h at 37° C. and 5% CO2. The differentiation of pre-adipocyte cells was initiated in a differentiation medium containing 10 µg/ml insulin, 1.0 µM dexamethasone, and 0.5 mM isobutylmethylxanthine (IBMX). The cells were differentiated for 5 days and then the culture medium was removed. The monolayer was washed twice with wash solution (Hank's balanced salt solution), and then 250 µL of incubation solution (Hank's balanced salt solution plus 2% bovine serum albumin) was added to the wells in triplicate in presence or absence of 7-hydroxyfrullanolide or its analogs or the extracts containing 7-HF, and the cells were further incubated for 16 h. To measure lipolysis, 200 μL of free glycerol assay reagent was added to 25 µL of culture supernatants and controls containing glycerol standard. The samples and the controls were incubated for 15 min, and the absorbance was read at 540 nm. A standard curve constructed from the glycerol was used to calculate the concentration of free glycerol in the culture supernatants. The percentage increase in glycerol concentration in the sample solutions compared to the control containing the known concentrations of glycerol corresponds to the percentage acceleration of lipolysis by test compound.

For assay [2], the system named is 3T3-L1 pre-adipocyte cells. Briefly: Inhibition of lipid accumulation in differentiated adipocytes (Oil Red O). The note with it: Homo sapiens, 3T3-L1 adipocytes. Here is the method:
One hundred thousand 3T3-L1 […] pre-adipocyte cells in Dulbecco's Modified Eagles Medium (DMEM) containing 10% Fetal Bovine Serum (FBS) were taken into each well of a 24-well plate and incubated for 48 h at 37° C. and 5% CO2. The differentiation of pre-adipocyte cells was initiated in a differentiation medium containing 10 μg/ml insulin, 1.0 μM dexamethasone, and 0.5 mM isobutylmethylxanthine (IBMX) for 48 h. After this the medium was replaced by DMEM containing 10 ug/ml insulin and incubated for 3 days. Then the differentiating cells were treated with […] of 7-hydroxyfrullanolide (1) or different natural analogs (structure numbers 3 to 11) or semi-synthetic analogs (structure numbers 12 to 25) of 7-HF. The cells were maintained in the medium for another 3-5 days. The cells incubated with 0.1% DMSO were considered as the vehicle control. After the incubation period, cells were washed with phosphate buffered saline (PBS) and fixed with 10% buffered formalin for 1 h at room temperature. One small aliquot of cell suspension was separated for cell counting in hemocytometer chamber. Fixed cells were stained with Oil Red O solution to measure the cellular neutral lipid accumulation. Briefly, cells were washed with PBS, fixed with 10% buffered formalin and stained with Oil Red O solution (0.5 g in 100 ml isopropanol) for […]. After removing the staining solution, the dye retained in the cells will be eluted into isopropanol and OD measured at 550 nm. The inhibition of fat accumulation in the treated cells was compared with the mock treated differentiated adipocytes. The treated and control cells were also analyzed and compared for inhibition of lipid accumulation visually under microscope and recorded digitally in suitable image capture system. The anti-adipogenic activity by 7-HF is depicted in Figure I and the percentage inhibition of lipid accumulation shown by 7-HF and its natural and semi-synthetic analogs is summarized in Table-1.

By inhibition is commonly meant the share of the control response that was lost under treatment. Read a low inhibition as a response near the control. `C=C1C(=O)O[C@H]2C3=C(C)CCC[C@]3(C)CC[C@@]12O` [7-HF (1), 7-hydroxyfrullanolide]: the ADRP protein expression result with ADRP is listed as “down-regulation”. In the assay with adiponectin, the adiponectin protein expression entry was “potent upregulation”. Further, in the assay with aP2, the aP2 protein expression entry is “down-regulation”. Moreover, in assay [1], the “% acceleration of lipolysis” value turned out to be 47.8%. In assay [2] (1.0 μg/mL), this compound came in with an inhibition at 1 µg/mL of 52.5%. Moreover, the inhibition at 2.5 µg/mL in assay [2] (2.5 μg/mL) was determined as 63.5%.
